“And” between values parts separate entries of the source, which are not always exact repeats. Equal values may be shown once. Read-outs that look alike come from different tables or passages of the source.
Test system: L. major lysate proteins
Assay: Multitargeted bead mixture chemoproteomics, single concentration competition, proteome-wide
Type: binding
Settings: for fold change / fold change relative to vehicle control: vehicle control = 1; for fold change relative to vehicle control: competition with free ligand

For `CCCCCCOc1ccc(Cc2cnc(N)nc2N)cc1` [compound 1], the “fold change vs vehicle control” value was 0.96 and 1.16 and 1.02 and 0.84, the fold change (LINJ.05.0500 ATPASE ALPHA SUBUNIT) was 1.04 and the fold change (LINJ.36.4570 PROTEASOME REGULATORY ATPASE SUBUNIT) was 0.72. For the same molecule, the fold change (LMJF.10.0510 GLYCEROL-3-PHOSPHATE DEHYDROGENASE NAD ], GLYCOSOMAL) was 0.92, the fold change (LMJF.16.1610 PROHIBITIN) was 1.18 and the fold change (LMJF.18.1370 HEAT SHOCK PROTEIN, PUTATIVE) was 0.95. For the same molecule, the fold change (LMJF.19.0300 RNA BINDING PROTEIN, PUTATIVE) was 0.89, the fold change (LMJF.21.0760 […]-ATP-ASE SUBUNIT 5, PUTATIVE) was 0.7 and the fold change (LMJF.22.0410 HYPOTHETICAL PROTEIN, CONSERVED) was 0.84. The fold change (LMJF.25.1770 ENOYL-COA REDUCTASE, PUTATIVE) was 0.98, the fold change (LMJF.26.0300 AMINOPEPTIDASE-LIKE PROTEIN) was 0.77 and the fold change (LMJF.26.2560 HYPOTHETICAL PROTEIN, CONSERVED) was 0.82. The fold change (LMJF.27.1810 GLYCOSOMAL PHOSPHOENOLPYRUVATE CARBOXYKINASE, PUTATIVE) was 1.05, the fold change (LMJF.28.0490 PROPIONYL-COA CARBOXYLASE BETA CHAIN, PUTATIVE) was 0.7 and the fold change (LMJF.29.0940 HY[…], CONSERVED) was 1.06. The fold change (LMJF.29.1310 CARNITINE/CHOLINE ACETYLTRANSFERASE, PUTATIVE) was 0.99, the fold change (LMJF.29.1470 HYPOTHETICAL PROTEIN, CONSERVED) was 0.73 and the fold change (LMJF.29.2440 HYPOTHETICAL PROTEIN, CONSERVED) was 0.88. For the same molecule, the fold change (LMJF.30.2350 SPHINGOSINE 1-PHOSPHATE LYASE) was 1.13, the fold change (LMJF.30.2970 GLYCERALDEHYDE 3-PHOSPHATE DEHYDROGENASE, GLYCOSOMAL) was 1.09 and the fold change (LMJF.30.3390 CAS/CSE/IMPORTIN DOMAIN PROTEIN, PUTATIVE) was 0.85. For the same molecule, the fold change (LMJF.31.2650 ACETOIN DEHYDROGENASE E3 COMPONENT-LIKE PROTEIN) was 0.92, the fold change (LMJF.31.2970 ACETYL-COA CARBOXYLASE, PUTATIVE) was 0.96 and the fold change (LMJF.33.1030 HYPOTHETICAL PROTEIN, CONSERVED) was 0.85. The fold change (LMJF.33.1930 PHOSPHORIBOSYLPYROPHOSPHATE SYNTHETASE, PUTATIVE) was 0.91, the fold change (LMJF.35.5040 polyadenylate-binding protein 1) was 0.93 and the fold change (LMJF.35.5250 ALPHA-1,2-MANNOSYLTRANSFERASE, PUTATIVE) was 0.88. The fold change (LMJF.36.5100 HYPOTHETICAL PROTEIN, CONSERVED) was 0.89, the fold change (LMJF.[…] RIBOSOMAL PROTEIN S7, PUTATIVE) was 1.43 and the “fold change vs vehicle control” value (protein LINJ.03.0940 HY[…], CONSERVED) was 1.24. For the same molecule, the “fold change vs vehicle control” value (protein LINJ.09.0030 HYPOTHETICAL PROTEIN, CONSERVED) was 0.98, the “fold change relative to vehicle control” value (protein LINJ.11.0780 40S RIBOSOMAL PROTEIN S21, PUTATIVE) was 1.29 and the fold change (protein LINJ.13.0990 PROTEASOME REGULATORY ATPASE SUBUNIT 2, PUTATIVE) was 0.79. For the same molecule, the “fold change vs vehicle control” value (protein LINJ.13.1460 ALPHA TUBULIN) was 1, the fold change (protein LINJ.15.0090 HEAT SHOCK PROTEIN HSLVU, ATPASE SUBUNIT HSLU, PUTATIVE) was 0.97 and the “fold change relative to vehicle control” value (protein LINJ.16.1380 […], PUTATIVE) was 1.55. The “fold change vs vehicle control” value (protein LINJ.19.0300 RNA BINDING PROTEIN) was 1.16, the “fold change relative to vehicle control” value (protein LINJ.20.1390 COATOMER BETA SUBUNIT, PUTATIVE) was 1.01 and the “fold change vs vehicle control” value (protein LINJ.21.1310 40S RIBOSOMAL PROTEIN S23, PUTATIVE) was 1.08. For the same molecule, the “fold change vs vehicle control” value (protein LINJ.23.1680 HYPOTHETICAL PROTEIN, CONSERVED) was 0.98, the “fold change vs vehicle control” value (protein LINJ.25.1170 […] OXIDASE VII, PUTATIVE) was 1.03 and the “fold change relative to vehicle control” value (protein LINJ.25.1220 RIBOSOMAL PROTEIN S25) was 1.36. For the same molecule, the “fold change vs vehicle control” value (protein LINJ.26.1080 HY[…], CONSERVED) was 1.09, the “fold change vs vehicle control” value (protein LINJ.27.1140 HYPOTHETICAL PROTEIN, CONSERVED) was 0.97 and the “fold change vs vehicle control” value (protein LINJ.28.1100 RIBOSOMAL PROTEIN S20, PUTATIVE) was 1. For the same molecule, the “fold change relative to vehicle control” value (protein LINJ.28.1940 REPLICATION FACTOR A, 51KDA SUBUNIT, PUTATIVE) was 1.2, the fold change (protein LINJ.31.2350 ADP-RI[…], PUTATIVE) was 1.13 and the “fold change vs vehicle control” value (protein LINJ.34.0670 PROTEASOME REGULATORY NON-ATP-ASE SUBUNIT 11, PUTATIVE) was 0.97. The fold change (protein LINJ.35.0410 40S RIBOSOMAL PROTEIN S3A, PUTATIVE) was 1.07, the “fold change relative to vehicle control” value (protein LINJ.35.0780 CBS DOMAIN PROTEIN, CONSERVED) was 1.21 and the “fold change vs vehicle control” value (protein LINJ.36.0510 HY[…], CONSERVED) was 1.03. The “fold change vs vehicle control” value (protein LINJ.36.3940 40S RIBOSOMAL PROTEIN S27-1, PUTATIVE) was 0.91, the fold change (protein LINJ.36.4180 HS1VU COMPLEX PROTEOLYTIC SUBUNIT-LIKE) was 0.81 and the fold change (protein LINJ.36.7350 CYTOCHROME C OXIDASE SUBUNIT I) was 0.96. The fold change (protein LMJF.01.0520 LONG-CHAIN-FATTY-ACID-COA LIGASE, PUTATIVE) was 0.59, the “fold change vs vehicle control” value (protein LMJF.02.0460 HYPOTHETICAL PROTEIN, CONSERVED) was 0.96 and the “fold change vs vehicle control” value (protein LMJF.03.0230 LONG CHAIN FATTY ACYL COA SYNTHETASE, PUTATIVE) was 1.11. The “fold change vs vehicle control” value (protein LMJF.03.0630 HYPOTHETICAL PROTEIN, CONSERVED) was 0.95, the fold change (protein LMJF.05.0780 HY[…], CONSERVED) was 1.17 and the fold change (protein LMJF.06.0010 HISTONE H4) was 1.14. The fold change (protein LMJF.06.0140 PROTEASOME BETA 6 SUBUNIT, PUTATIVE) was 0.8, the fold change (protein LMJF.06.0650 LANOSTEROL SYNTHASE, PUTATIVE) was 0.88 and the “fold change vs vehicle control” value (protein LMJF.08.0510 RIBOSE-PHOSPHATE PYROPHOSPHOKINASE, PUTATIVE) was 1.04. The “fold change vs vehicle control” value (protein LMJF.08.0550 TRANSLATION INITIATION FACTOR-LIKE PROTEIN) was 1.1, the “fold change vs vehicle control” value (protein LMJF.08.1100 HY[…], CONSERVED) was 1.01 and the “fold change relative to vehicle control” value (protein LMJF.09.1120 MIT[…] BINDING PROTEIN 2,MRP2, GBP25) was 1.17. The “fold change vs vehicle control” value (protein LMJF.09.1260 HY[…], CONSERVED) was 1.16, the fold change (protein LMJF.10.1010 NUCLEOSIDE PHOSPHORYLASE-LIKE PROTEIN) was 0.72 and the fold change (protein LMJF.10.1240 HYPOTHETICAL PROTEIN, CONSERVED) was 0.8. For the same molecule, the “fold change vs vehicle control” value (protein LMJF.11.0130 NGG1 I[…] 3-LIKE PROTEIN) was 0.99, the “fold change vs vehicle control” value (protein LMJF.11.0240 […] 7 SUBUNIT, PUTATIVE) was 1.03 and the fold change (protein LMJF.11.1050 PRETRA[…], ALPHA SUBUNIT, PUTATIVE) was 1.11. The “fold change vs vehicle control” value (protein LMJF.11.1110 60S RIBOSOMAL PROTEIN L28, PUTATIVE) was 1.29, the “fold change vs vehicle control” value (protein LMJF.12.0210 […] […]1L8 3, PUTATIVE) was 1.04 and the “fold change vs vehicle control” value (protein LMJF.12.0280 ORNITHINE DECARBOXYLASE, PUTATIVE) was 0.98. For the same molecule, the “fold change vs vehicle control” value (protein LMJF.13.0450 HYPOTHETICAL PROTEIN, CONSERVED) was 0.99, the “fold change vs vehicle control” value (protein LMJF.13.0870 MITOCHONDRIAL PROCESSING PEPTIDASE ALPHA SUBUNIT, PUTATIVE) was 0.94 and the “fold change vs vehicle control” value (protein LMJF.14.0130 INOSINE-GUANINE NUCLEOSIDE HYDROLASE, PUTATIVE) was 0.91. For the same molecule, the fold change (protein LMJF.14.0310 […] 3 SUBUNIT, PUTATIVE) was 1.01, the fold change (protein LMJF.14.0650 FATTY ACID ELONGASE, PUTATIVE) was 0.96 and the fold change (protein LMJF.14.0660 FATTY ACID ELONGASE, PUTATIVE) was 1.11. The fold change (protein LMJF.14.0705 FATTY ACID ELONGASE, PUTATIVE) was 1.02, the fold change (protein LMJF.14.0740 FATTY ACID ELONGASE, PUTATIVE) was 1.2 and the “fold change relative to vehicle control” value (protein LMJF.14.1120 KINESIN K39, PUTATIVE) was 1.45. The “fold change vs vehicle control” value (protein LMJF.15.0230 LYSYL-TRNA SYNTHETASE, PUTATIVE) was 1.07, the “fold change vs vehicle control” value (protein LMJF.15.0280 RIBONUCLEOPROTEIN P18, MIT[…], PUTATIVE) was 1.04 and the fold change (protein LMJF.15.1010 GLUTAMATE DEHYDROGENASE) was 1.09. For the same molecule, the “fold change relative to vehicle control” value (protein LMJF.16.0520 HYPOTHETICAL PROTEIN, CONSERVED) was 2.54, the fold change (protein LMJF.16.0540 ASPARTATE CARBAMOYLTRANSFERASE, PUTATIVE) was 0.89 and the “fold change vs vehicle control” value (protein LMJF.16.0950 SUCROSE-PHOSPHATE SYNTHASE-LIKE PROTEIN) was 0.99. For the same molecule, the “fold change vs vehicle control” value (protein LMJF.16.0960 HYPOTHETICAL PROTEIN, CONSERVED) was 0.44, the fold change (protein LMJF.16.1180 COATOMER DELTA SUBUNIT-LIKE PROTEIN) was 0.87 and the fold change (protein LMJF.17.0010 HYPOTHETICAL PROTEIN, CONSERVED) was 0.88. For the same molecule, the “fold change vs vehicle control” value (protein LMJF.18.0510 ACONITASE, PUTATIVE) was 0.98, the “fold change vs vehicle control” value (protein LMJF.18.0890 RAB7 GTP BINDING PROTEIN, PUTATIVE) was 0.94 and the fold change (protein LMJF.18.1130 RAS-RELATED PROTEIN RAB-5, PUTATIVE) was 0.85. For the same molecule, the fold change (protein LMJF.19.1120 PROTEASOME REGULATORY NON-ATP-ASE SUBUNIT, PUTATIVE) was 0.9, the “fold change vs vehicle control” value (protein LMJF.19.1160 HYPOTHETICAL PROTEIN, CONSERVED) was 0.83 and the “fold change vs vehicle control” value (protein LMJF.19.1530 PEPTIDYLPROLYL ISOMERASE-LIKE PROTEIN) was 0.94. The fold change (protein LMJF.20.0100 PHOSPH[…] C, GLYCOSOMAL) was 1.04, the “fold change vs vehicle control” value (protein LMJF.21.0720 HY[…], CONSERVED) was 1.05 and the fold change (protein LMJF.21.1250 ADENYLATE KINASE, PUTATIVE) was 0.98. The fold change (protein LMJF.21.1555 HY[…], CONSERVED) was 1.01, the fold change (protein LMJF.21.1580 HY[…], UNKNOWN FUNCTION) was 1.03 and the “fold change vs vehicle control” value (protein LMJF.21.1700 […] 2 SUBUNIT, PUTATIVE) was 0.89. For the same molecule, the fold change (protein LMJF.22.0230 AMINO ACID PERMEASE, PUTATIVE) was 1.2 and the “fold change vs vehicle control” value (protein LMJF.22.0730 HYPOTHETICAL PROTEIN, CONSERVED) was 1.

Source: paper PMC6199744, “Development of Chemical Proteomics for the Folateome and Analysis of the Kinetoplastid Folateome” (ACS Infectious Diseases, 2018)
